In patent publication US7786054B2, “Biocide for well stimulation and treatment fluids” (Kemira Chemicals, Inc., priority 2006, dated 2010):
“Also recorded” adds a separate entry of the source.

What was measured:
[1] = test system: sulfate reducing bacteria (SRB); test: Biocidal effectiveness on sulfate reducing bacteria in spiked frac pond water, serial dilution counts over 180 days with challenges; type: cell-based
Procedure: (§1) In this example, the biocidal effectiveness on sulfate reducing bacteria (SRB) and acid producing bacteria (AB) for biocide formulations containing CB Thione and WB Thione to Glut and THPS was examined.
(§2) A one gallon sample was separated from a five gallon sample of frac pond water for these studies. The frac pond water sample included SRB and AB. Ten mL of a 10^9 cfu/mL inoculum of SRB grown in anaerobic API broth containing an O2 scavenger and 10 mL of a 10^9 cfu/mL inoculum of AB grown in anaerobic phenol red (anPR) broth containing an O2 scavenger were added to the one gallon frac pond water sample, mixed well and allowed to incubate for a period of time sufficient to achieve a desired number of SRB and AB. All broth media for inoculum and serial dilution counts in this study was made at 4% salinity to match the salinity of the original frac pond water measured by total dissolved solids testing. To increase nutrient value and to emulate on-site friction reducing additives, a 30 weight % acrylic acid, 70% acrylamide copolymer was added to the inoculated gallon of frac pond water sample at 300 ppm and then referred to as the spiked frac pond water sample. The spiked sample was then divided into 99.0 g aliquots for testing the effect of various biocides at various concentrations on the SRB and AB over a 180 day contact time. One spiked aliquot would serve as the control sample to which no biocide would be added. Challenges were made to all aliquots using 0.5 mL of 10^8 SRB and 0.5 mL, of 10^8 AB at 14, 28, and 129 days contact time.
(§3) The biocides included a 20% water based Thione (WB Thione), a 24% caustic based Thione (CB Thione), a 25% Glut, and a 35% THPS. Stock biocide solutions of various concentrations were made from these biocides as described below.
(§4) The WB Thione stock solutions were prepared by adding 3.0 g of the biocide to 17.0 g of sterile distilled water to form an intermediate solution, followed by combining each intermediate solution with water in the accounts shown in Table 1 below to make the descending concentrations as shown in Table 1.
as §4, with “The CB” for “The WB”, “the amounts” for “the accounts”, “Table 2” for “Table 1”, “Table 2.” for “Table 1.”
(§5) The Glut stock solutions were prepared by adding 1.0 g biocide to 19.0 g of sterile distilled water to form an intermediate solution, followed by combining each intermediate solution with water in the amounts shown in Table 3 below to make the descending concentrations as shown in Table 3.
(§6) The THPS stock solutions were prepared by adding 1.0 g of the biocide to 19.0 g of sterile distilled water to form an intermediate solution, followed by combining each intermediate solution with water in the amounts shown in Table 4 below to make the descending concentrations as shown in Table 4.
(§7) Next, 1 g of each biocide stock solution was added to the appropriately labeled 99.0 g aliquot. Also, 1.0 g of sterile water was added to the control aliquot. The concentrations of the biocides present in each aliquot are provided below in Table 5.
(§8) The aliquots were then incubated at room temperature in the dark for the entire study, i.e., 6 months. […] Using sterile syringes, this testing was performed by serial diluting the aliquots into sealed 9.0 mL anaerobic API broth and anaerobic PR broth bottles, both media containing an O2 scavenger, in the appropriate labeled set of SRB bottles (6 for each aliquot) mid AB bottles (6 for each aliquot) until a color change occurred, indicating the log quantity of organisms present in each aliquot.

[2] = test system: acid producing bacteria (AB); test: Biocidal effectiveness on acid producing bacteria in spiked frac pond water, serial dilution counts over 180 days with challenges; type: cell-based
Procedure: as §1, §2, §3, §4
as §4, with “The CB” for “The WB”, “the amounts” for “the accounts”, “Table 2” for “Table 1”, “Table 2.” for “Table 1.”
as §5, §6, §7, §8

[3] = Effect of biocide on the oxygen scavenger (oxygen reduction potential); type: physicochemical; settings: 500 ppm biocide; 120 ppm SMBS; pH 6.4; FIG. 5
Procedure: In the following examples, an in-house constructed Inversion Loop was modified with a Grace M3500 viscometer for periodically measuring fluid viscosity as a function of time. The ORP apparatus included a HACH sensION pH meter with a combination ORP electrode. In Example 7, a friction loop apparatus was employed
To a beaker containing 500 milliliters of deionized water, a 120 ppm dose of sodium metabisulfite (SMBS) was added and the pH and oxygen reduction potential (ORP) were recorded. Once stabilized, phosphate buffer was added to increase the pH to 6.4 and the ORP recorded. Finally, the particular biocide tested was added at a concentration of 500 ppm. The ORP was recorded initially and after a period of 10 minutes.

[4] = 500 ppm as is (Glut, THPS), 7 Days
[5] = 500 ppm as is (Glut, THPS), 14 Days
[6] = 500 ppm as is (Glut, THPS), 21 Days
[7] = 500 ppm as is (Glut, THPS), 28 Days
[8] = 500 ppm as is (Glut, THPS), 35 Days
[9] = 500 ppm as is (Glut, THPS), 42 Days
[10] = 500 ppm as is (Glut, THPS), 58 Days
[11] = 500 ppm as is (Glut, THPS), 90 Days
[12] = up to 180 days contact time, challenges at 14, 28 and 129 days

## O=CCCCC=O [Glut, glutaraldehyde]
[1]; 50 ppm as is, 7 Days
  Log 10 Anaerobic Sulfate Reducing Bacteria/mL: 0 Log 10 Bacteria/mL
[1]; 50 ppm as is, 14 Days
  Log 10 Anaerobic Sulfate Reducing Bacteria/mL: 0 Log 10 Bacteria/mL
[1]; 50 ppm as is, 21 Days
  Log 10 Anaerobic Sulfate Reducing Bacteria/mL: 0 Log 10 Bacteria/mL
[1]; 50 ppm as is, 28 Days
  Log 10 Anaerobic Sulfate Reducing Bacteria/mL: 0 Log 10 Bacteria/mL
[1]; 50 ppm as is, 35 Days
  Log 10 Anaerobic Sulfate Reducing Bacteria/mL: ≧3 Log 10 Bacteria/mL
[1]; 50 ppm as is, 42 Days
  Log 10 Anaerobic Sulfate Reducing Bacteria/mL: ≧6 Log 10 Bacteria/mL
[1]; 50 ppm as is, 58 Days
  Log 10 Anaerobic Sulfate Reducing Bacteria/mL: ≧6 Log 10 Bacteria/mL
[1]; 50 ppm as is, 90 Days
  Log 10 Anaerobic Sulfate Reducing Bacteria/mL: ≧5 Log 10 Bacteria/mL
[1]; 100 ppm as is, 7 Days
  Log 10 Anaerobic Sulfate Reducing Bacteria/mL: 0 Log 10 Bacteria/mL
[1]; 100 ppm as is, 14 Days
  Log 10 Anaerobic Sulfate Reducing Bacteria/mL: 0 Log 10 Bacteria/mL
[1]; 100 ppm as is, 21 Days
  Log 10 Anaerobic Sulfate Reducing Bacteria/mL: 0 Log 10 Bacteria/mL
[1]; 100 ppm as is, 28 Days
  Log 10 Anaerobic Sulfate Reducing Bacteria/mL: 0 Log 10 Bacteria/mL
[1]; 100 ppm as is, 35 Days
  Log 10 Anaerobic Sulfate Reducing Bacteria/mL: ≧3 Log 10 Bacteria/mL
[1]; 100 ppm as is, 42 Days
  Log 10 Anaerobic Sulfate Reducing Bacteria/mL: ≧6 Log 10 Bacteria/mL
[1]; 100 ppm as is, 58 Days
  Log 10 Anaerobic Sulfate Reducing Bacteria/mL: ≧5 Log 10 Bacteria/mL
[1]; 100 ppm as is, 90 Days
  Log 10 Anaerobic Sulfate Reducing Bacteria/mL: ≧5 Log 10 Bacteria/mL
[1]; 200 ppm as is, 7 Days
  Log 10 Anaerobic Sulfate Reducing Bacteria/mL: 0 Log 10 Bacteria/mL
[1]; 200 ppm as is, 14 Days
  Log 10 Anaerobic Sulfate Reducing Bacteria/mL: 0 Log 10 Bacteria/mL
[1]; 200 ppm as is, 21 Days
  Log 10 Anaerobic Sulfate Reducing Bacteria/mL: 0 Log 10 Bacteria/mL
[1]; 200 ppm as is, 28 Days
  Log 10 Anaerobic Sulfate Reducing Bacteria/mL: 0 Log 10 Bacteria/mL
[1]; 200 ppm as is, 35 Days
  Log 10 Anaerobic Sulfate Reducing Bacteria/mL: ≧3 Log 10 Bacteria/mL
[1]; 200 ppm as is, 42 Days
  Log 10 Anaerobic Sulfate Reducing Bacteria/mL: ≧6 Log 10 Bacteria/mL
[1]; 200 ppm as is, 58 Days
  Log 10 Anaerobic Sulfate Reducing Bacteria/mL: ≧6 Log 10 Bacteria/mL
[1]; 200 ppm as is, 90 Days
  Log 10 Anaerobic Sulfate Reducing Bacteria/mL: ≧6 Log 10 Bacteria/mL
[1]; [4]
  Log 10 Anaerobic Sulfate Reducing Bacteria/mL: 0 Log 10 Bacteria/mL
[1]; [5]
  Log 10 Anaerobic Sulfate Reducing Bacteria/mL: 0 Log 10 Bacteria/mL
[1]; [6]
  Log 10 Anaerobic Sulfate Reducing Bacteria/mL: 0 Log 10 Bacteria/mL
[1]; [7]
  Log 10 Anaerobic Sulfate Reducing Bacteria/mL: 0 Log 10 Bacteria/mL
[1]; [8]
  Log 10 Anaerobic Sulfate Reducing Bacteria/mL: ≧3 Log 10 Bacteria/mL
[1]; [9]
  Log 10 Anaerobic Sulfate Reducing Bacteria/mL: 5 Log 10 Bacteria/mL
[1]; [10]
  Log 10 Anaerobic Sulfate Reducing Bacteria/mL: ≧6 Log 10 Bacteria/mL
[1]; [11]
  Log 10 Anaerobic Sulfate Reducing Bacteria/mL: ≧6 Log 10 Bacteria/mL
[1]; [12]
  control of SRB in frac pond water (summary in words): lost all control of SRB and AB after the 2nd challenge on day 28; also recorded: failed completely at all concentrations after challenging twice at 14 and 28 days contact time
[2]; 50 ppm as is, 7 Days
  Log 10 Anaerobic Acid Producing Bacteria/mL: 0 Log 10 Bacteria/mL
[2]; 50 ppm as is, 14 Days
  Log 10 Anaerobic Acid Producing Bacteria/mL: 0 Log 10 Bacteria/mL
[2]; 50 ppm as is, 21 Days
  Log 10 Anaerobic Acid Producing Bacteria/mL: 1 Log 10 Bacteria/mL
[2]; 50 ppm as is, 28 Days
  Log 10 Anaerobic Acid Producing Bacteria/mL: 0 Log 10 Bacteria/mL
[2]; 50 ppm as is, 35 Days
  Log 10 Anaerobic Acid Producing Bacteria/mL: ≧3 Log 10 Bacteria/mL
[2]; 50 ppm as is, 42 Days
  Log 10 Anaerobic Acid Producing Bacteria/mL: ≧6 Log 10 Bacteria/mL
[2]; 50 ppm as is, 58 Days
  Log 10 Anaerobic Acid Producing Bacteria/mL: ≧6 Log 10 Bacteria/mL
[2]; 50 ppm as is, 90 Days
  Log 10 Anaerobic Acid Producing Bacteria/mL: ≧5 Log 10 Bacteria/mL
[2]; 100 ppm as is, 7 Days
  Log 10 Anaerobic Acid Producing Bacteria/mL: 0 Log 10 Bacteria/mL
[2]; 100 ppm as is, 14 Days
  Log 10 Anaerobic Acid Producing Bacteria/mL: 0 Log 10 Bacteria/mL
[2]; 100 ppm as is, 21 Days
  Log 10 Anaerobic Acid Producing Bacteria/mL: 0 Log 10 Bacteria/mL
[2]; 100 ppm as is, 28 Days
  Log 10 Anaerobic Acid Producing Bacteria/mL: 0 Log 10 Bacteria/mL
[2]; 100 ppm as is, 35 Days
  Log 10 Anaerobic Acid Producing Bacteria/mL: ≧3 Log 10 Bacteria/mL
[2]; 100 ppm as is, 42 Days
  Log 10 Anaerobic Acid Producing Bacteria/mL: ≧6 Log 10 Bacteria/mL
[2]; 100 ppm as is, 58 Days
  Log 10 Anaerobic Acid Producing Bacteria/mL: ≧6 Log 10 Bacteria/mL
[2]; 100 ppm as is, 90 Days
  Log 10 Anaerobic Acid Producing Bacteria/mL: ≧6 Log 10 Bacteria/mL
[2]; 200 ppm as is, 7 Days
  Log 10 Anaerobic Acid Producing Bacteria/mL: 0 Log 10 Bacteria/mL
[2]; 200 ppm as is, 14 Days
  Log 10 Anaerobic Acid Producing Bacteria/mL: 1 Log 10 Bacteria/mL
[2]; 200 ppm as is, 21 Days
  Log 10 Anaerobic Acid Producing Bacteria/mL: 0 Log 10 Bacteria/mL
[2]; 200 ppm as is, 28 Days
  Log 10 Anaerobic Acid Producing Bacteria/mL: 0 Log 10 Bacteria/mL
[2]; 200 ppm as is, 35 Days
  Log 10 Anaerobic Acid Producing Bacteria/mL: ≧3 Log 10 Bacteria/mL
[2]; 200 ppm as is, 42 Days
  Log 10 Anaerobic Acid Producing Bacteria/mL: ≧5 Log 10 Bacteria/mL
[2]; 200 ppm as is, 58 Days
  Log 10 Anaerobic Acid Producing Bacteria/mL: ≧6 Log 10 Bacteria/mL
[2]; 200 ppm as is, 90 Days
  Log 10 Anaerobic Acid Producing Bacteria/mL: ≧6 Log 10 Bacteria/mL
[2]; [4]
  Log 10 Anaerobic Acid Producing Bacteria/mL: 0 Log 10 Bacteria/mL
[2]; [5]
  Log 10 Anaerobic Acid Producing Bacteria/mL: 0 Log 10 Bacteria/mL
[2]; [6]
  Log 10 Anaerobic Acid Producing Bacteria/mL: 0 Log 10 Bacteria/mL
[2]; [7]
  Log 10 Anaerobic Acid Producing Bacteria/mL: 0 Log 10 Bacteria/mL
[2]; [8]
  Log 10 Anaerobic Acid Producing Bacteria/mL: ≧3 Log 10 Bacteria/mL
[2]; [9]
  Log 10 Anaerobic Acid Producing Bacteria/mL: 4 Log 10 Bacteria/mL
[2]; [10]
  Log 10 Anaerobic Acid Producing Bacteria/mL: ≧6 Log 10 Bacteria/mL
[2]; [11]
  Log 10 Anaerobic Acid Producing Bacteria/mL: ≧6 Log 10 Bacteria/mL
[2]; [12]
  control of AB in frac pond water (summary in words): lost all control of SRB and AB after the 2nd challenge on day 28
[3]
  ORP after 10 minutes of residence time: increases nearly to the level of the DI H2O alone
  ORP response upon initial addition of biocide: does not significantly impact ORP
